# Experimental data as given in patent US9943501B2 (KOJUN JAPAN CO., LTD., priority 2014, dated 2018).
# System: C57BL/6J mice fed with a high-fat diet
# Test: Amounts of subcutaneous fat and visceral fat in dietary-induced obesity mouse model
# Format: in vivo
# Conditions: 85 days, relative to increase in control group over normal group
# Method: For each individual of the male C57BL/6J mice after lapse of 85 days into the test of Example 9, blood was collected under anesthesia with 2% isoflurane, and the mice were then euthanized. Inguinal subcutaneous fat, epididymal fat, perirenal fat, and mesenteric fat were collected from each individual. The weight of each fat was measured, and the average fat weights of each test group were determined.
# The ordinate of the drawing depicts the measured weight (g) of each fat tissue. Each bar of the bar graph indicates the normal group, the control group, the 5H4PB 0.037 μg/kg/day administration group, the 5H4PB 0.01 mg/kg/day administration group, the rosiglitazone 0.037 μg/kg/day administration group, and the rosiglitazone 10 mg/kg/day administration group from the left to the right. […] Specifically, increase in the amount of each fat tissue was inhibited by approximately 35% for the inguinal subcutaneous fat, approximately 18% for the epididymal fat, approximately 13% for the perirenal fat, and approximately 16% for the mesenteric fat in the test group administered 0.037 μg/kg/day of 5H4PB, while increase in the amount of each fat tissue was inhibited by approximately 34% for the inguinal subcutaneous fat, approximately 15% for the epididymal fat, approximately 13% for the perirenal fat, and approximately 40% for the mesenteric fat in the test group administered 0.01 […] of 5H4PB, with respect to the amount of each fat tissue increased in the control group due to the high-calorie diet (the value determined by subtracting the fat tissue weight of the normal group from the fat tissue weight of the control group). Thus, 5H4PB administered at a low dose was confirmed to have subcutaneous fat and visceral fat accumulation inhibitory effects.
# [1] = 0.01 μg/kg/day (so in the source)
smiles,measurement,setting,value
"O=C1C=C(c2ccccc2)C(O)O1 (centres unmarked) [5H4PB, 5-hydroxy-4-phenylbutenolide]",increase in the amount of epididymal fat inhibited,[1],approximately 15%
same,increase in the amount of inguinal subcutaneous fat inhibited,[1],approximately 34%
same,increase in the amount of mesenteric fat inhibited,[1],approximately 40%
same,increase in the amount of perirenal fat inhibited,[1],approximately 13%
same,increase in the amount of epididymal fat inhibited,0.037 μg/kg/day,approximately 18%
same,increase in the amount of inguinal subcutaneous fat inhibited,0.037 μg/kg/day,approximately 35%
same,increase in the amount of mesenteric fat inhibited,0.037 μg/kg/day,approximately 16%
same,increase in the amount of perirenal fat inhibited,0.037 μg/kg/day,approximately 13%
